Experimental data published in article PMC6572854, “Convergent allostery in ribonucleotide reductase” (Nature Communications, 2019).
Numbering of substitutions follows the chain as printed.

How the values were obtained:
[1] = biological target: T1, NrdE (holo-NrdE; class Ib RNR alpha subunit) (Bacillus subtilis, UniProt P50620); test: crystal structure ([…] Å); type: binding; conditions: allosteric; I-site, displacing dAMP; presumed hydrolysis product of added ATP; with TTP and GDP or CDP
T1 construct: tagless full-length (C-terminal residue V700), His6-SUMO tag cleaved, E. coli BL21(DE3); holo form co-purifies with dAMP; monomer, I-dimer, S-dimer or filament depending on nucleotides
T1 sequence (P50620 whole entry): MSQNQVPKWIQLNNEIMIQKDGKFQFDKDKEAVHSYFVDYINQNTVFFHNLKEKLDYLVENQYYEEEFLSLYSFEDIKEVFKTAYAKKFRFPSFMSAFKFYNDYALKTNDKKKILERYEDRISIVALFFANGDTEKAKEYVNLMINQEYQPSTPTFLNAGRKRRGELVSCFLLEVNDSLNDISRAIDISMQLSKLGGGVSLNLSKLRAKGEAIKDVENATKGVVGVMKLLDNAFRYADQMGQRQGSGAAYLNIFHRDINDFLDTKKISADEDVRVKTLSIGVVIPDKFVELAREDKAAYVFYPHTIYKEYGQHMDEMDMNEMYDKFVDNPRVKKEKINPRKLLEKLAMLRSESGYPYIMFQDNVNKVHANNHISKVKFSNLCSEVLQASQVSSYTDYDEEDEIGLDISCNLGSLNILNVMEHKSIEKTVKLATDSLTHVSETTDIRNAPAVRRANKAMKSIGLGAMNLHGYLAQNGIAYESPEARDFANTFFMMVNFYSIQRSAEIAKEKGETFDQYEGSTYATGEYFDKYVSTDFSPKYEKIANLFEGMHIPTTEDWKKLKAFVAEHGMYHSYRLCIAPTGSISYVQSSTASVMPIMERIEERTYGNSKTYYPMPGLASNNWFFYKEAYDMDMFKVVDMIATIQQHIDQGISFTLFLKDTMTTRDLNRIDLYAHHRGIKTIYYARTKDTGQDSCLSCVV

[2] = biological target: T1, NrdE (holo-NrdE; class Ib RNR alpha subunit); test: crystal structure ([…] Å) and SAXS titration; type: binding; conditions: allosteric; M-site; 5 mM Mg-ATP with TTP and GDP; may have displaced GDP
[3] = biological target: T2, NrdEF (holo-NrdE + Mn-reconstituted NrdF) (Bacillus subtilis, UniProt P50620); test: cryo-EM structure ([…] Å); type: binding; conditions: allosteric; S-site and I-site of NrdE in NrdEF filament; 100 µM dATP, 1 mM CDP, 15 mM MgCl2, pH 7.6
T2 construct: tagless NrdE (SUMO tag cleaved) plus His6-tagged NrdF, E. coli host; alpha2beta2 asymmetric unit of filament; both nucleotide sites lie on NrdE; NrdF modelled only as C-terminal polyalanine peptide; with Ribonucleoside-diphosphate reductase subunit beta NrdF
T2 sequence (P50620 whole entry, one chain of several): as the sequence (P50620 whole entry) above

[4] = biological target: T1, NrdE (holo-NrdE; class Ib RNR alpha subunit); test: cryo-EM structure ([…] Å) and SAXS titration; type: binding; conditions: allosteric; S-site and I-site; 100 µM dATP, 1 mM CDP, 15 mM MgCl2, pH 7.6; dATP displaces co-purified dAMP at I-site
[5] = biological target: T3, Bacillus subtilis NrdE C382S, tagless (Bacillus subtilis, UniProt P50620 1-700, C382S); test: SAXS titration; 0-20 µM Fe-NrdF titrated to 4 µM C382S holo-NrdE, 50 µM dATP, 1 mM CDP, assay buffer with 5% glycerol, 4 °C; singular value decomposition; conditions: both partners purified
T3 construct: NrdE, α subunit of the class Ib ribonucleotide reductase of Bacillus subtilis, with the catalytic cysteine C382 changed to serine; Used in all SAXS experiments where NrdF was added, to prevent changes in nucleotide concentrations (D1:p2); also called C382S holo-NrdE; C382S NrdE
T3 sequence: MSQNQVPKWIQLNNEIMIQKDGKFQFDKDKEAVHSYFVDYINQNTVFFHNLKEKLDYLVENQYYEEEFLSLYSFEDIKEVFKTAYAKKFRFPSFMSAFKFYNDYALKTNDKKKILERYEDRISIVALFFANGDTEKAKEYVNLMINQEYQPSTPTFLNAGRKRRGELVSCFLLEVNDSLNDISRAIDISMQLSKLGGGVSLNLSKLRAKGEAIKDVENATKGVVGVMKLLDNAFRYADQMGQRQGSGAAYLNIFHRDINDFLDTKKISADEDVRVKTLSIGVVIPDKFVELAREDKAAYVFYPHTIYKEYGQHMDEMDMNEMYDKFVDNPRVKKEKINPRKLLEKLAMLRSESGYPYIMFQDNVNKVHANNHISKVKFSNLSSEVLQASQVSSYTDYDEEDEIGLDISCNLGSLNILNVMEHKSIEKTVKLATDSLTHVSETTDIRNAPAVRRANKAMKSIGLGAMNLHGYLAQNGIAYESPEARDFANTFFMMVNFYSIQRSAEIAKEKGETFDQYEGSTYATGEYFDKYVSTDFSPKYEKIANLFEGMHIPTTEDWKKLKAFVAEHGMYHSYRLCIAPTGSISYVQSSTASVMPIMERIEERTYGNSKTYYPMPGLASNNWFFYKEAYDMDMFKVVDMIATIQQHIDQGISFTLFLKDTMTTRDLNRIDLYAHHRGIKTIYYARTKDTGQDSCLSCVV

[6] = biological target: T4, Bacillus subtilis class Ib ribonucleotide reductase alpha subunit NrdE, wild type, tagless (Bacillus subtilis, UniProt P50620 1-700); test: cryo-EM structure; 20 µM holo-NrdE with 20 or 40 µM Mn-reconstituted NrdF, 100 µM dATP, 1 mM CDP, diluted four-fold; NrdEF filament, 4.7 Å map; conditions: both partners purified
T4 construct: NrdE, alpha subunit of the class Ib ribonucleotide reductase of Bacillus subtilis; tagless after SUMO protease; also called apo-NrdE (dAMP-free)
T4 sequence: T3 sequence with S382C

[7] = biological target: the molecule itself; test: SEC-SAXS; stoichiometric mixture of C382S holo-NrdE and NrdF with 1 mM ATP and 250 µM TTP, 4 °C
[8] = biological target: the molecule itself; test: SEC-SAXS; 80 µM wt holo-NrdE loaded, 250 µM TTP, 1 mM ATP, assay buffer with 1% glycerol, 4 °C; fit of the dataset to I-dimer, S-dimer and monomer in OLIGOMER

## Nc1ncnc2c1ncn2[C@@H]1O[C@H](COP(=O)(O)OP(=O)(O)O)[C@@H](O)[C@H]1O [ADP]
[1]
  crystal structure (2.50, 2.55, 2.95 Å): Electron density at the I-site showed strong evidence for an ADP ligand displacing dAMP

## Nc1ncnc2c1ncn2[C@@H]1O[C@H](COP(=O)(O)OP(=O)(O)OP(=O)(O)O)[C@@H](O)[C@H]1O [ATP]
[2]
  crystal structure (2.50, 2.55 Å) and SAXS titration: we also observed nearby electron density for an ATP ligand with the adenine ring positioned

## Nc1ncnc2c1ncn2[C@H]1C[C@H](O)[C@@H](COP(=O)(O)OP(=O)(O)OP(=O)(O)O)O1 [dATP]
[3]
  cryo-EM structure (4.7 Å): a dATP molecule at each S- and I-site
[4]
  cryo-EM structure (6 Å) and SAXS titration: For both filaments, excess density at the S-site was modeled as dATP

B1: Bacillus subtilis class Ib ribonucleotide reductase NrdF (β subunit), His6-tagged, metal-reconstituted (enzyme)
chain: MTKIYDAANWSKHEDDFTQMFYNQNVKQFWLPEEIALNGDLLTWKYLGKNEQDTYMKVLAGLTLLDTEQGNTGMPIVAEHVDGHQRKAVLNFMAMMENAVHAKSYSNIFMTLAPTETINEVFEWVKQNKYLQKKAQMIVGLYKAIQKDDEISLFKAMVASVYLESFLFYSGFYYPLYFYGQGKLMQSGEIINLILRDEAIHGVYVGLLAQEIYNKQTEEKKAELREFAIDLLNQLYENELEYTEDLYDQVGLSHDVKKFIRYNANKALMNLGFDPYFEEEDINPIVLNGLNTKTKSHDFFSMKGNGYKKATVEPLKDDDFYFEDEKEQI
notes: NrdF, β subunit of the class Ib ribonucleotide reductase of Bacillus subtilis; Fe-NrdF was used in the subunit titration, Mn-NrdF in SEC-SAXS and cryo-EM; also called Fe-NrdF; Mn-NrdF; source: produced in a similar manner as NrdE but without the tag cleavage steps, purified; reconstituted with Fe(III)2-Y• or Mn(III)2-Y•, MonoQ
[5]
  stoichiometry N: ~1 NrdF per NrdE (subunits)

B2: Bacillus subtilis class Ib ribonucleotide reductase beta subunit NrdF, His6-tagged, metal-reconstituted (enzyme)
chain: B1 chain
notes: NrdF, beta subunit of the class Ib ribonucleotide reductase of Bacillus subtilis; Fe-NrdF in the SAXS subunit titration, Mn-reconstituted NrdF in cryo-EM; also called Fe-NrdF
[6]
  binding result: binds
[7]
  binding result: binds

B3: Bacillus subtilis class Ib ribonucleotide reductase NrdE (α subunit), wild type, tagless (enzyme)
chain: T3 sequence with S382C
notes: NrdE, α subunit of the class Ib ribonucleotide reductase of Bacillus subtilis; holo-NrdE carries the co-purified dAMP ligand, apo-NrdE is nucleotide-free; same polypeptide; also called wt apo-NrdE (dAMP-free)
[8]
  stoichiometry N: 2
